# Source: publication PMC12643529 (ACS Infectious Diseases, 2025)
# Experiments:
# [1] = tested on: bloodstream form of T. brucei; experiment: alamarBlue (resazurin) antitrypanosomal assay; type: cell-based, Trypanosoma brucei; conditions: for IC50: bloodstream form, 72 h, alamarBlue/resazurin, error as σ; for selectivity index (SI) T. brucei: SI = IC50 MRC-5/IC50 T. brucei (resazurin assay)
# [2] = tested on: promastigote form of L. major; experiment: MTT-based antileishmanial assay, promastigotes; type: cell-based, Leishmania major; conditions: for IC50: promastigotes, 72 h, MTT, error as σ; for selectivity index (SI) L. major: SI = IC50 MRC-5/IC50 L. major promastigotes
# Method: The antileishmanial activity of the compounds against the promastigote form of L. major, the […] was determined using an MTT-based assay (Sigma-Aldrich). Stock solutions of the compounds were prepared in DMSO with the final DMSO percentage in each well maintained below 1%. 4 × 10^6 parasites per mL were incubated at 28 °C in 96-well plates (50 μL/well) either alone or in the presence of increasing concentrations of compounds DMSO for 72 h. After the incubation period, 10 μL of MTT (5 mg/mL) was added to each well, and the parasites were incubated for 4 h at 28 °C. Subsequently, cell lysis was performed using 50 μL/well of 20% SDS. […] Data were presented as the average of at least three independent measurements, each conducted under triplicate conditions. […] “single marker” […] S7
# [3] = tested on: MRC-5 cells; experiment: alamarBlue cytotoxicity assay, MRC-5; type: cell-based; conditions: 72 h
# [4] = tested on: HeLa cells; experiment: alamarBlue antiproliferative assay, HeLa; type: cell-based, human; conditions: for IC50: Homo sapiens, HeLa, 72 h, alamarBlue; for selectivity index (SI) HeLa: SI = IC50 MRC-5/IC50 HeLa
# [5] = tested on: HT-29 cells; experiment: alamarBlue antiproliferative assay, HT-29; type: cell-based, human; conditions: for IC50: Homo sapiens, HT-29, 72 h, alamarBlue; for selectivity index (SI) HT-29: SI = IC50 MRC-5/IC50 HT-29
# [6] = tested on: F21T K+ (human telomeric G-quadruplex, potassium buffer); type: binding; conditions: ligand 10 μM, oligonucleotide 200 nM, 10 mM KCl
# [7] = tested on: F21T Na+ (human telomeric G-quadruplex, sodium buffer); type: binding; conditions: ligand 10 μM, oligonucleotide 200 nM, 100 mM NaCl
# [8] = tested on: FEbr1T (T. brucei G-quadruplex); experiment: FRET melting assay, FEbr1T; type: binding; conditions: ligand 10 μM, oligonucleotide 200 nM, 10 mM KCl
# [9] = tested on: FMycT (c-Myc promoter G4); experiment: FRET melting assay, FMycT; type: binding; conditions: ligand 10 μM, oligonucleotide 200 nM, 1 mM KCl
# [10] = tested on: Fmt6363T (human mitochondrial G-quadruplex); experiment: FRET melting assay, Fmt6363T; type: binding; conditions: ligand 10 μM, oligonucleotide 200 nM, 10 mM KCl
# [11] = tested on: F10T (hairpin duplex DNA); type: binding; conditions: ligand 10 μM, oligonucleotide 200 nM, 10 mM KCl
# [12] = tested on: F21T (DNA, G4) GGGTTAGGGTTAGGGTTAGGG; experiment: FRET melting; conditions: Na+ (100 mM NaCl); 10 mM Li cacodylate; compound 10 µM, DNA 200 nM
# [13] = tested on: FMycT (DNA, G4) TTGAGGGTGGGTAGGGTGGGTAA; experiment: FRET melting; conditions: K+ (1 mM KCl), 99 mM LiCl; 10 mM Li cacodylate; compound 10 µM, DNA 200 nM
# [14] = tested on: THP-1 cells; experiment: alamarBlue cytotoxicity assay, PMA-differentiated THP-1; type: cell-based, human; conditions: PMA-differentiated THP-1, 72 h
# [15] = tested on: intracellular amastigote form of L. major; experiment: Luciferase assay, intracellular amastigotes in THP-1 macrophages; type: cell-based, Leishmania major; conditions: for IC50: intracellular amastigotes in THP-1 macrophages, 72 h, luciferase; for selectivity index (SI) THP-1: SI = IC50 THP-1/IC50 L. major amastigotes
# Method: The antileishmanial activity of the compounds against the intracellular form of L. major was evaluated using the Luciferase Assay System kit from Promega. THP-1 cells were seeded at a density of 3 × 10^5 cells/mL in 96-well plates (100 μL/well) and treated with 20 ng/mL PMA (phorbol 12-myristate 13-acetate, Sigma) for 48 h to induce differentiation. Postdifferentiation, the cells were washed, and fresh medium was added (100 μL/well) before being reincubated. Following an additional 24 h, the wells were washed, and 50 μL of L. major parasites at a density of 1.5 × 10^6 parasites/mL (suspended in RPMI-1640 medium 5% hiFBS and 5% penicillin/streptomycin) were added to the wells. The plates were then incubated at 35 °C in 5% CO2. After 24 h, the wells were washed three times with PBS, and fresh medium with increasing concentrations of compounds was added (100 μL/well). After another 72 h of incubation, the cells were then treated with 25 μL of lysis buffer and stored at −80 °C. Following 24 h, 25 μL of luciferase enzyme substrate was added to each well, and the luciferase activity of the amastigotes was determined using a TECAN Infinite F200 microplate reader. […] Data were presented as the average of at least three independent measurements, each conducted under triplicate conditions.
# Parasite and cell culturing […]
# Leishmania major (MHOM/IL/80/Friedlin) promastigotes and its derivative luminescent strain L. major LucRE9 with the luciferase gene integrated into the parasite genome (LUC) were cultured at 28 °C, 5 % CO2 in modified RPMI-1640 medium (Invitrogen, Carlsbad, CA) supplemented with 10 % hiFBS6, including […] blasticidin in the LucRE9 strain. 7 Parasites were maintained in culture in their […] growth phase (below 2 million T. brucei parasites per mL, ,10 million L. major parasites per mL for promastigotes experiments), and in the stationary phase , 20 million L. major parasites per mL for THP -1 infection experiments.
# MRC-5 cell line (human lung fibroblast) was grown in monolayer at 37 °C, 5 % CO2 in DMEM medium (1 g/L glucose) supplemented with 10% hiFBS, 100 U/mL penicillin, […] streptomycin and 2 mM L-glutamine.8
# THP-1 cells (human monocytic cell line) were maintained in RPMI-1640 medium supplemented with 10% heat-inactivated fetal bovine serum (hiFBS) and 5 % penicillin/streptomycin (37 °C, 5 % CO2, and 100 % humidity). […]
Compound,IC50 ([1]; Trypanosoma brucei) [nM],IC50 ([2]; Leishmania major) [nM],selectivity index (SI) L. major [2],"IC50 ([3]; MRC5, human lung fibroblasts) [nM]",IC50 [4] [nM],selectivity index (SI) HeLa [4],IC50 [5] [nM],selectivity index (SI) HT-29 [5],selectivity index (SI) T. brucei [1],further results
CN(C)c1ccc(/C=C/c2sc3ccccc3[n+]2C)c2ccccc12.[I-] [2g],20 ± 15,170 ± 40,23.9,4010 ± 90,29100 ± 1050,0.14,89500 ± 9550,0.04,,ΔTm F21T K+ [6]: 9.7 ± 0.2 °C; ΔTm F21T Na+ [7]: 3.4 ± 0.5 °C; ΔTm FEbr1T [8]: 8.9 ± 0.5 °C; ΔTm FMycT [9]: 3.0 ± 1.1 °C; ΔTm Fmt6363T [10]: 7.7 ± 0.3 °C; ΔTm F10T [11]: 0.4 ± 0.1 °C; ΔTm [12]: 3.4 ± 0.5 °C; ΔTm [13]: 3.0 ± 1.1 °C
"C[C@@H]1[C@H](O)[C@@H](C)/C=C/C=C/C=C/C=C/C=C/C=C/C=C/[C@H](O[C@@H]2O[C@H](C)[C@@H](O)[C@H](N)[C@@H]2O)C[C@@H]2O[C@](O)(C[C@@H](O)C[C@@H](O)[C@H](O)CC[C@@H](O)C[C@@H](O)CC(=O)O[C@H]1C)C[C@H](O)[C@H]2C(=O)O [AmB, Amphotericin B]",,1920 ± 50,,,,,,,,IC50 ([14]; Homo sapiens): 9890 ± 1980 nM; IC50 ([15]; Leishmania major): 4410 ± 1960 nM; selectivity index (SI) THP-1 [15]: 2.24
"COS(=O)(=O)[O-].Cc1cc2c3c([n+](C)c4ccc(F)cc4c3c1)-c1cc(F)ccc1N2C [RHPS4, 3,11-Difluoro-6,8,13-Trimethyl-8H-Quino[4,3,2-Kl]Acridinium Methosulfate, reference compound]",,,93.64,,,,,,11.77,"IC50 [1]: 350 ± 60 nM; IC50 [2]: 44 ± 15 nM; IC50 ([3]; human lung fibroblasts): 4120 ± 520 nM; IC50 [14]: 214000 ± 3360 nM; selectivity index (SI) MRC-5 ([15]; SI = IC50 MRC-5/IC50 L. major amastigotes): 137.33; selectivity index (SI) THP-1 [15]: 7,131; IC50 [15]: 30 ± 20 nM"
C[n+]1c(/C=C/c2ccccc2)sc2ccccc21.[I-] [compound 2a],370 ± 180,480 ± 110,4.2,2020 ± 120,,,,,5.5,
C[n+]1c(/C=C/c2ccc(N(c3ccccc3)c3ccccc3)cc2)sc2ccccc21.[I-] [compound 2c],340 ± 130,,,,8890 ± 1590,0.58,8910 ± 880,0.58,,ΔTm F21T K+ [6]: 12.7 ± 0.4 °C; ΔTm F21T Na+ [7]: 9.4 ± 0.5 °C; ΔTm FEbr1T [8]: 13.5 °C; ΔTm FMycT [9]: 8.6 ± 1.0 °C; ΔTm Fmt6363T [10]: 10.2 ± 0.5 °C; ΔTm F10T [11]: 0.7 ± 0.1 °C
Cn1cccc1/C=C/c1sc2ccccc2[n+]1C.[I-] [compound 2e],2290 ± 310,240 ± 29,39.6,9400 ± 1060,78000 ± 8260,0.12,76400 ± 1440,0.12,4.1,
Cn1cccc1-c1ccc(/C=C/c2sc3ccccc3[n+]2C)s1 [compound 2f],610 ± 45,610 ± 92,6.0,3680 ± 170,,,,,6.0,
C[n+]1c(/C=C/c2cc3c4c(c2)CCCN4CCC3)sc2ccccc21.[I-] [compound 2h],0.26 ± 0.17,,,,840 ± 10,0.09,1000 ± 160,0.08,,ΔTm F21T K+ [6]: 16.9 °C; ΔTm F21T Na+ [7]: 9.4 ± 0.3 °C; ΔTm FEbr1T [8]: 14.1 °C; ΔTm FMycT [9]: 12.6 ± 0.9 °C; ΔTm Fmt6363T [10]: 15.0 ± 0.4 °C; ΔTm F10T [11]: 0.9 ± 0.4 °C
C[n+]1c(/C=C/c2ccc(-c3ccc(N(c4ccccc4)c4ccccc4)cc3)s2)sc2ccccc21 [compound 2i],1830 ± 60,45 ± 12,86.2,3880 ± 170,,,,,2.12,
"CSc1ccc(OCc2ncc([N+](=O)[O-])n2C)cc1 [fexinidazole, reference compound]",880 ± 20,,,,,,,,,
CCCCCCCCCCCCCCCCOP(=O)([O-])OCC[N+](C)(C)C [miltefosine],,5710 ± 460,,,,,,,,IC50 ([14]; Homo sapiens): 55190 ± 110 nM; IC50 ([15]; Leishmania major): 5100 ± 560 nM; selectivity index (SI) THP-1 [15]: 10.82
"Cc1ccc(C(=O)Nc2ccc(S(=O)(=O)O)c3cc(S(=O)(=O)O)cc(S(=O)(=O)O)c23)cc1NC(=O)c1cccc(NC(=O)Nc2cccc(C(=O)Nc3cc(C(=O)Nc4ccc(S(=O)(=O)O)c5cc(S(=O)(=O)O)cc(S(=O)(=O)O)c45)ccc3C)c2)c1 [suramin, reference compound]",4.2 ± 0.3,,,,,,,,,
